{"source": "patent US20030124590A1", "about": "“Carbohydrate response element binding protein and uses thereof” (priority 2001, published 2003)", "key": {"[1]": {"target": "T1, cytosolic Xu-5-P activated PPase (Rattus norvegicus, UniProt P63331)", "T1 construct": "from tissue; host or cells: rat liver cytosolic extract, DEAE-cellulose then Mono Q", "T1 sequence (P63331 whole entry)": "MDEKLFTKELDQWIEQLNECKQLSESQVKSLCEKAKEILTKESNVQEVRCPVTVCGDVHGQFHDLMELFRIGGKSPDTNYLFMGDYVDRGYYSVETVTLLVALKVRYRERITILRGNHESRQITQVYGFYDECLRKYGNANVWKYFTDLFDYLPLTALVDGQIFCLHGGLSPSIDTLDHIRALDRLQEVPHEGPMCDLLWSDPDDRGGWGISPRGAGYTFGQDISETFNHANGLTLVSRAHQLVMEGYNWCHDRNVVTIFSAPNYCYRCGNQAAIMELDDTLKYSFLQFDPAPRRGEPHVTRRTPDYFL", "T1 sequence (P56932 whole entry partner)": "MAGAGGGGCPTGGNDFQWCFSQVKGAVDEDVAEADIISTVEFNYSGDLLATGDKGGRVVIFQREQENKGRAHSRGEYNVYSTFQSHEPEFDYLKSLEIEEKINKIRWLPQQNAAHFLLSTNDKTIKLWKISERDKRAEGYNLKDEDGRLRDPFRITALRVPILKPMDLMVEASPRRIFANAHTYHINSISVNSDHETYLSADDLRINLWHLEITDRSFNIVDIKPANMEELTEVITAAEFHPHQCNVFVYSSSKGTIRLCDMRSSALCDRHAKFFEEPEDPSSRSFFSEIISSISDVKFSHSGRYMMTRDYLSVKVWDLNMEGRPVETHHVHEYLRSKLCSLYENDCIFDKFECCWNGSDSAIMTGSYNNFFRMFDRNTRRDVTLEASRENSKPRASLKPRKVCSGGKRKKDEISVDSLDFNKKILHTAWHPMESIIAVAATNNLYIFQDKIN", "T1 sequence (Q5XI34 1-589 partner)": "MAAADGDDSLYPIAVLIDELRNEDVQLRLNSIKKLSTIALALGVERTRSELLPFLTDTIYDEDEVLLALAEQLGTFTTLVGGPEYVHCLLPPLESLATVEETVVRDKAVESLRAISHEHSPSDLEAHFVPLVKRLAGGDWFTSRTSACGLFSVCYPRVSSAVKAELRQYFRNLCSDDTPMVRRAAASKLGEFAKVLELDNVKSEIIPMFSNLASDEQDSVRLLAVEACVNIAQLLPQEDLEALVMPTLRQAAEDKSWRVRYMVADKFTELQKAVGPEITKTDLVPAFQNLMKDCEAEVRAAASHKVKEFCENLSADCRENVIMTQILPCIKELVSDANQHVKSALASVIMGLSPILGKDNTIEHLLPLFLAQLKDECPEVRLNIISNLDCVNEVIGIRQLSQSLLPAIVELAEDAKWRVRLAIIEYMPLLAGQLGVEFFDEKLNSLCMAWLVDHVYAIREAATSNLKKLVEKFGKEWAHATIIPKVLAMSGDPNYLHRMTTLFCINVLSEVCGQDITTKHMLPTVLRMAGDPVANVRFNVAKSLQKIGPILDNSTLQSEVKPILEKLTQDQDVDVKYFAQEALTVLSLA", "test": "Protein phosphatase assay, cytosolic Xu-5-P activated PPase of liver", "type": "biochemical", "settings": "for inhibition of cytosolic PPase (MonoQ eluate): okadaic acid concentration not stated (below 10 nM)", "experimental": "Liver was homogenized in a motor-driven Potter-Elvehjem homogenizer in 1 volume of extraction buffer containing 10 mM Hepes (pH 7.9), 10 mM KCl, 0.1 mM EDTA, 0.74 mM spermidine, 0.25 M sucrose, 50 mM imidazole, 1 mM dithiothreitol (DTT), 4 mM phenylmethanesulfonyl fluoride, and 1 mM benzamidine, and the extract was centrifuged at 10,000×g for 30 min.\n(§1) Synthetic peptides corresponding to amino acids #187-201 ([…] “P1” peptide) (SEQ ID NO:64), #556-573 ([…], “P4” peptide) (SEQ ID NO:65), and #655-674 ([…]; “P3” peptide) (SEQ ID NO:66), of ChREBP were prepared by the Peptide Synthesis Service of University of Texas Southwestern Medical Center. These peptides were phosphorylated by 10 U of PKA for 6 h at 30° C. P4 peptide corresponding to 556-573 ([…]) (SEQ ID NO:65), was phosphorylated by 10 U of AMPK for 5 h at 30° C. The reaction mixtures were passed through on a Dowex AG1X8 column (0.5 cm×5 cm) which had been equilibrated with 30% acetic acid to remove residual [^32P]-ATP. The labeled peptides in the pass through fraction were lyophilized.\n(§2) Protein phosphatase activity was determined by the method of Deana et al (Deana et al. (1990) Biochem, Biophys. Acta. 1051: 199-202). The reaction mixture contained in a final volume of 50 μ1,20 mM MOPS, pH 7.0, 1 mM DTT, 25 μg of BSA, and ^32P-labeled substrate for 15 min at 30° C. The reaction was terminated by the addition of 10% trichloroacetic acid. Phosphate released was converted to a phosphomolybdic complex followed by organic solvent (isobutyl alcohol:heptane, 1:1) extraction of the complex. The reaction mixture was mixed thoroughly and centrifuged. An aliquot of the top layer was then added to 5 ml scintillation fluid and counted. One unit of protein phosphatase is defined as that amount which catalyzes the release of 1.0 μmol of ^32P/min at 30° C.\n(§3) These peptides were assayed with Mono Q purified cytosolic and nuclear PPases in the presence and absence of 50 μM Xu-5-P."}, "ChREBP": {"system": "ChREBP", "test": "Gel shift of purified ChREBP after incubation with PKA/PP2A in vitro", "type": "biochemical, rat", "settings": "okadaic acid 10 nM", "experimental": "Gel shift assay. Gel mobility shift assays were performed as described by Liu et al. (Liu et al. (1993) J Biol Chem 268, 12787-12795). Double-stranded oligonucleotides (Table 1) were prepared by mixing equal amounts of the complementary single-stranded DNAs in 50 mM NaCl, heating to 70° C. for 15 min, and cooling to room temperature. The annealed oligonucleotides were labeled with ^32P in the presence of [γ^32P]-ATP (Amersham Pharmacia) and T4 polynucleotide kinase (New England Biolabs). Binding reactions were carried out in reaction mixture containing 20 mM Hepes (pH 7.9), 50 mM KCl, 5 mM DTT, 0.2 mM EDTA, 0.5 mM PMSF, 10% glycerol, 1 μg/μl of poly(dI-dC) (Amersham Pharmacia) and 1 μg/μl of nuclear extract. The reaction mixture was incubated at room temperature for 30 min and DNA-protein complexes were separated by electrophoresis in a 4.5% nondenaturing polyacrylamide gel.\nPurified ChREBP was incubated with PKA and/or PP2A in vitro and measured by gel-shift analysis with the [^32P]-radiolabeled WT oligonucleotide. Purified ChREBP was incubated for 20 min with ATP (1 mM), PKA (0.1 U/μl), 0.2 U/μl PKI, 0.025 U/μl PP2A and the PP2A inhibitor, okadaic acid (10 nM)."}, "PP2A": {"target": "PP2A (Homo sapiens, UniProt P67775)", "sequence (P67775 whole entry)": "as the sequence (P63331 whole entry) above, with L5V counted along it", "settings": "cited from earlier work"}, "[2]": {"target": "T2, nuclear Xu-5-P activated PPase (Rattus norvegicus, UniProt P63331)", "T2 construct": "from tissue; host or cells: rat liver nuclear extract, DEAE-cellulose then Mono Q", "T2 sequence (P63331 whole entry)": "as the sequence (P63331 whole entry) above", "T2 sequence (P56932 whole entry partner)": "as the sequence (P56932 whole entry partner) above", "T2 sequence (Q5XI34 1-589 partner)": "as the sequence (Q5XI34 1-589 partner) above", "test": "Protein phosphatase assay, nuclear Xu-5-P activated PPase of liver", "type": "biochemical", "settings": "read-out: inhibition of nuclear Xu-5-P-activated PPase (Mono Q eluate); for inhibition at 0.001 µM: 1 nM okadaic acid, P3 substrate", "experimental": "Liver nuclear extracts were prepared as described in Example 1.\nas §1, §2, §3"}}, "note": "Like-named read-outs stand apart in the source and are kept apart here."}
{"smiles": "C=C1[C@@H](O)[C@@H]2O[C@]3(CC[C@H](/C=C/[C@@H](C)[C@@H]4CC(C)=C[C@@]5(O[C@H](C[C@@](C)(O)C(=O)O)CC[C@H]5O)O4)O3)CC[C@H]2O[C@@H]1[C@@H](O)C[C@H](C)[C@H]1O[C@@]2(CCCCO2)CC[C@H]1C", "note": "[okadaic acid]", "values": [{"measurement": "inhibition of cytosolic PPase (MonoQ eluate)", "setting": "[1]; absence of Xu-5-P", "result": "approximately 65%"}, {"measurement": "inhibition of cytosolic Xu-5-P activated PPase (in words)", "setting": "[1]; okadaic acid 10 nM (absence and presence of Xu-5-P), cantharidic acid 500 nM, deltamethrin 300 nM", "result": "completely"}, {"measurement": "inhibition of cytosolic PPase (MonoQ eluate)", "setting": "[1]; presence of Xu-5-P", "result": "~50", "unit": "%"}, {"measurement": "reactivation of phosphorylated ChREBP by PP2A", "setting": "ChREBP", "result": "blocked"}, {"measurement": "IC50", "setting": "PP2A", "result": 1, "unit": "nM"}, {"measurement": "inhibition at 0.001 µM", "setting": "[2]; absence of Xu-5-P", "result": 63, "unit": "%"}, {"measurement": "inhibition at 0.001 µM", "setting": "[2]; presence of Xu-5-P", "result": 70, "unit": "%"}, {"measurement": "inhibition at 0.01 µM", "setting": "[2]; 10 nM okadaic acid", "result": "> 95", "unit": "%"}]}
